Experimental data reported in patent US11613522B2, “Herbicidally active 3-phenylisoxazoline-5-carboxamides of tetrahydro- and dihydrofurancarboxamides” (BAYER AKTIENGESELLSCHAFT, priority 2017, dated 2023).

Experiments:
Assay type in all cases: in vivo
[1] = test system: Avena fatua; assay: Pre-emergence herbicidal activity against AVEFA; conditions: dosage 80 g/ha, scored visually after about 3 weeks vs untreated controls; for pest or weed control at 80 g/ha: Avena fatua, 504 h, read-out: Pre-emergence herbicidal activity in % against AVEVA (AVEFA)
Description: (§1) 1. Pre-emergence herbicidal action against harmful plants and crop plant compatibility Seeds of monocotyledonous and dicotyledonous weed plants and crop plants are placed in plastic or wood fiber pots and covered with soil. The compounds of the invention, formulated in the form of wettable powders (WP) or as emulsion concentrates (EC), are then applied onto the surface of the covering soil as aqueous suspension or emulsion with addition of 0.5% additive at a water application rate of 600 l/ha (converted). After the treatment, the pots are placed in a greenhouse and kept under good growth conditions for the trial plants. After about 3 weeks, the effect of the preparations is scored visually in comparison with untreated controls as percentages. For example, 100% activity=the plants have died, 0% activity=like control plants. [table]

[2] = test system: Setaria viridis; assay: Pre-emergence herbicidal activity against SETVI; conditions: dosage 80 g/ha, scored visually after about 3 weeks vs untreated controls; for pest or weed control at 80 g/ha: Setaria viridis, 504 h
Description: as §1

[3] = test system: Polygonum convolvulus; assay: Pre-emergence herbicidal activity against POLCO; conditions: dosage 80 g/ha, scored visually after about 3 weeks vs untreated controls; for pest or weed control at 80 g/ha: Fallopia convolvulus, 504 h
Description: as §1

[4] = test system: Stellaria media; assay: Pre-emergence herbicidal activity against STEME; conditions: dosage 80 g/ha, scored visually after about 3 weeks vs untreated controls; for pest or weed control at 80 g/ha: Stellaria media, 504 h
Description: as §1

[5] = test system: Viola tricolor; assay: Pre-emergence herbicidal activity against VIOTR; conditions: dosage 80 g/ha, scored visually after about 3 weeks vs untreated controls
Description: as §1

[6] = test system: Alopecurus myosuroides; assay: Post-emergence herbicidal activity against ALOMY; conditions: dosage 320 g/ha, rated visually after about 3 weeks; for pest or weed control at 320 g/ha: Alopecurus myosuroides, 504 h
Protocol: (§2) [table] Seeds of monocotyledonous and dicotyledonous weeds and crop plants are placed in sandy loam in plastic or wood-fiber pots, covered with soil and cultivated in a greenhouse under controlled growth conditions. 2 to 3 weeks after sowing, the test plants are treated at the one-leaf stage. The compounds of the invention, formulated in the form of wettable powders (WP) or as emulsion concentrates (EC), are then sprayed onto the green parts of the plants as aqueous suspension or emulsion with addition of 0.5% additive at a water application rate of 600 l/ha (converted). After the test plants had been kept in the greenhouse under optimum growth conditions for about 3 weeks, the activity of the preparations is rated visually in comparison to untreated controls. For example, 100% activity=the plants have died, 0% activity=like control plants.

[7] = test system: Avena fatua; assay: Post-emergence herbicidal activity against AVEFA; conditions: dosage 320 g/ha, rated visually after about 3 weeks; for pest or weed control at 320 g/ha: Avena fatua, 504 h
Protocol: as §2

[8] = test system: Echinochloa crus-galli; assay: Post-emergence herbicidal activity against ECHCG; conditions: dosage 320 g/ha, rated visually after about 3 weeks; for pest or weed control at 320 g/ha: Echinochloa crus-galli, 504 h
Protocol: as §2

[9] = test system: Setaria viridis; assay: Post-emergence herbicidal activity against SETVI; conditions: dosage 320 g/ha, rated visually after about 3 weeks; for pest or weed control at 320 g/ha: Setaria viridis, 504 h
Protocol: as §2

[10] = test system: Abutilon theophrasti; assay: Post-emergence herbicidal activity against ABUTH; conditions: dosage 320 g/ha, rated visually after about 3 weeks
Protocol: as §2

[11] = test system: Amaranthus retroflexus; assay: Post-emergence herbicidal activity against AMARE; conditions: dosage 320 g/ha, rated visually after about 3 weeks; for pest or weed control at 320 g/ha: Amaranthus retroflexus, 504 h
Protocol: as §2

[12] = test system: Pharbitis purpurea; assay: Post-emergence herbicidal activity against PHBPU; conditions: dosage 320 g/ha, rated visually after about 3 weeks; for pest or weed control at 320 g/ha: Ipomoea purpurea, 504 h
Protocol: as §2

[13] = test system: Polygonum convolvulus; assay: Post-emergence herbicidal activity against POLCO; conditions: dosage 320 g/ha, rated visually after about 3 weeks
Protocol: as §2

[14] = test system: Stellaria media; assay: Post-emergence herbicidal activity against STEME; conditions: dosage 320 g/ha, rated visually after about 3 weeks; for pest or weed control at 320 g/ha: Stellaria media, 504 h
Protocol: as §2

[15] = test system: Viola tricolor; assay: Post-emergence herbicidal activity against VIOTR; conditions: dosage 320 g/ha, rated visually after about 3 weeks
Protocol: as §2

[16] = test system: Veronica persica; assay: Post-emergence herbicidal activity against VERPE; conditions: dosage 320 g/ha, rated visually after about 3 weeks; for pest or weed control at 320 g/ha: Veronica persica, 504 h
Protocol: as §2

[17] = Pre-emergence herbicidal action against harmful plants (summary of the tables); conditions: 504 h, application rate of 0.08 kg of active substance or less per hectare, read-out: herbicidal action, pre-emergence treatment (very good activity)
Description: as §1, with “plants.” for “plants. [table]”
As shown by the results, compounds according to the invention such as, for example, the compounds No. I-02 and other compounds from the tables (I-05, I-10, I-11, I-12, I-13, I-14, I-15, I-16, I-17, I-18, I-19, I-20, I-21, I-22, I-23, I-24, I-25, I-26, I-27, I-28, I-29) have, when used for pre-emergence treatment, very good activity (80% to 100% herbicidal action) against harmful plants such as Abutilon theophrasti, Alopecurus myosuroides, Amaranthus retroflexus, Avena fatua, Cyperus esculentus, Echinochloa crus-galli, Hordeum murinum, Lolium rigidum, Pharbitis purpurea, Polygonum convolvulus, Setaria viridis, Stellaria media, Veronica persica and Viola tricolor at an application rate of 0.08 kg of active substance or less per hectare.

[18] = test system: Alopecurus myosuroides; assay: Pre-emergence herbicidal activity against ALOMY; conditions: dosage 80 g/ha, scored visually after about 3 weeks vs untreated controls
Description: as §1

[19] = test system: Echinochloa crus-galli; assay: Pre-emergence herbicidal activity against ECHCG; conditions: dosage 80 g/ha, scored visually after about 3 weeks vs untreated controls
Description: as §1

[20] = test system: Lolium rigidum; assay: Pre-emergence herbicidal activity against LOLRI; conditions: dosage 80 g/ha, scored visually after about 3 weeks vs untreated controls
Description: as §1

[21] = test system: Amaranthus retroflexus; assay: Pre-emergence herbicidal activity against AMARE; conditions: dosage 80 g/ha, scored visually after about 3 weeks vs untreated controls
Description: as §1

[22] = test system: Hordeum murinum; assay: Pre-emergence herbicidal activity against HORMU; conditions: dosage 80 g/ha
Description: as §1

[23] = test system: Lolium rigidum; assay: Post-emergence herbicidal activity against LOLRI; conditions: dosage 320 g/ha, rated visually after about 3 weeks
Protocol: as §2

[24] = test system: Hordeum murinum; assay: Post-emergence herbicidal activity against HORMU; conditions: dosage 320 g/ha, rated visually after about 3 weeks
Protocol: as §2

[25] = test system: Veronica persica; assay: Pre-emergence herbicidal activity against VERPE; conditions: dosage 80 g/ha
Description: as §1

Compound CNC(=O)[C@@H]1C[C@H](NC(=O)C2(C)CC(c3cc(F)cc(F)c3)=NO2)CO1 (relative stereo) [Example I-05, 3-(3,5-difluorophenyl)-5-methyl-N-[cis-5-(methylcarbamoyl)tetrahydrofuran-3-yl]-4H-isoxazole-5-carboxamide] has a pest or weed control at 80 g/ha [1] of 100%, a pest or weed control at 80 g/ha [2] of 90% and a pest or weed control at 80 g/ha [3] of 90%. It also gave a pest or weed control at 80 g/ha [4] of 80%, a pest or weed control at 80 g/ha ([5]; Viola tricolor, 504 h) of 100% and a pest or weed control at 320 g/ha [6] of 90%. The pest or weed control at 320 g/ha [7] was 80%, the pest or weed control at 320 g/ha [8] was 90% and the pest or weed control at 320 g/ha [9] was 80%. For the same compound, the pest or weed control at 320 g/ha ([10]; Abutilon theophrasti, 504 h) was 80%, the pest or weed control at 320 g/ha [11] was 80% and the pest or weed control at 320 g/ha [12] was 80%. It also gave a pest or weed control at 320 g/ha ([13]; Fallopia convolvulus, 504 h) of 80%, a pest or weed control at 320 g/ha [14] of 80% and a pest or weed control at 320 g/ha ([15]; Viola tricolor, 504 h) of 80%. It also gave a pest or weed control at 320 g/ha [16] of 80% and a pest or weed control at 80 g/ha [17] of 80 to 100%.
In the case of CONC(=O)[C@@H]1C[C@H](NC(=O)C2(C)CC(c3cccc(F)c3)=NO2)CO1 (relative stereo) [Example I-10, 3-(3-fluorophenyl)-N-[cis-5-(methoxycarbamoyl)tetrahydrofuran-3-yl]-5-methyl-4H-isoxazole-5-carboxamide], the pest or weed control at 80 g/ha ([18]; Alopecurus myosuroides, 504 h) is reported as 100%, the pest or weed control at 80 g/ha [1] is reported as 80% and the pest or weed control at 80 g/ha ([19]; Echinochloa crus-galli, 504 h) is reported as 80%. For the same compound, the pest or weed control at 80 g/ha ([20]; Lolium rigidum, 504 h) was 100%, the pest or weed control at 80 g/ha [2] was 90% and the pest or weed control at 80 g/ha ([21]; Amaranthus retroflexus, 504 h) was 90%. The pest or weed control at 80 g/ha [3] was 90%, the pest or weed control at 80 g/ha [4] was 90% and the pest or weed control at 80 g/ha ([22]; Hordeum murinum, 504 h) was 100%. It also gave a pest or weed control at 320 g/ha [6] of 100%, a pest or weed control at 320 g/ha [7] of 90% and a pest or weed control at 320 g/ha [8] of 90%. It also gave a pest or weed control at 320 g/ha ([23]; Lolium rigidum, 504 h) of 90%, a pest or weed control at 320 g/ha [9] of 90% and a pest or weed control at 320 g/ha [11] of 80%. The pest or weed control at 320 g/ha [12] was 90%, the pest or weed control at 320 g/ha [14] was 80% and the pest or weed control at 320 g/ha [16] was 80%. It also gave a pest or weed control at 320 g/ha ([24]; Hordeum murinum, 504 h) of 90% and a pest or weed control at 80 g/ha [17] of 80 to 100%.
With CN(C)NC(=O)[C@@H]1C[C@H](NC(=O)[C@@]2(C)CC(c3cc(F)cc(F)c3)=NO2)CO1 [Example I-26] the “Pre-emergence herbicidal activity in % against ALOMY” value [18] was 100%, the “Pre-emergence herbicidal activity in % against AVEVA (AVEFA)” value [1] was 90% and the “Pre-emergence herbicidal activity in % against ECHCG” value [19] was 90%. For the same compound, the “Pre-emergence herbicidal activity in % against LOLRI” value [20] was 100%, the “Pre-emergence herbicidal activity in % against SETVI” value [2] was 90% and the “Pre-emergence herbicidal activity in % against AMARE” value [21] was 100%. The “Pre-emergence herbicidal activity in % against POLCO” value [3] was 90%, the “Pre-emergence herbicidal activity in % against STEME” value [4] was 100% and the “Pre-emergence herbicidal activity in % against VIOTR” value [5] was 80%. For the same compound, the “Pre-emergence herbicidal activity in % against VERPE” value [25] was 80%, the “Pre-emergence herbicidal activity in % against HORMU” value [22] was 90% and the “Post-emergence herbicidal activity in % against ALOMY” value [6] was 100%. The “Post-emergence herbicidal activity in % against AVEFA” value [7] was 100%, the “Post-emergence herbicidal activity in % against ECHCG” value [8] was 100% and the “Post-emergence herbicidal activity in % against LOLRI” value [23] was 100%. The “Post-emergence herbicidal activity in % against SETVI” value [9] was 80%, the “Post-emergence herbicidal activity in % against ABUTH” value [10] was 80% and the “Post-emergence herbicidal activity in % against AMARE” value [11] was 80%. The “Post-emergence herbicidal activity in % against PHBPU” value [12] was 90%, the “Post-emergence herbicidal activity in % against POLCO” value [13] was 80% and the “Post-emergence herbicidal activity in % against STEME” value [14] was 100%. For the same compound, the “Post-emergence herbicidal activity in % against VIOTR” value [15] was 90%, the “Post-emergence herbicidal activity in % against VERPE” value [16] was 80% and the “Post-emergence herbicidal activity in % against HORMU” value [24] was 100%.
